These results are taken from patent US20250092056A1, “URACIL DERIVATIVES HAVING VIRUS REPLICATION INHIBITORY ACTIVITY AND PHARMACEUTICAL COMPOSITION COMPRISING THE SAME” (Shionogi & Co., Ltd., priority 2022, published 2025).

Values joined by “and” are separate entries in the source; they are usually repeats but may differ in a detail not shown here. Equal values may be shown once. Read-outs that look alike come from different tables or passages of the source.

The IC50 is the concentration at which inhibition is half-maximal.

Assay [1] concerns the target Recombinant SARS-CoV-2 3CL Protease (Severe acute respiratory syndrome coronavirus 2 (2019-nCoV) (SARS-CoV-2), UniProt P0DTD1). As to the kind of experiment: biochemical. The note with it: 50% SARS-CoV-2 3CL protease inhibitory concentration; read-out: IC50. In kind it is biochemical.
For a further assay, the system named is SARS-CoV-2. As to the kind of experiment: Cytopathic effect (CPE) suppression effect confirmation test using HEK293T/ACE2-TMPRSS2 cells. Type of assay: cell-based. As to conditions: Severe acute respiratory syndrome coronavirus 2, HEK-293T. Background: Cytopathic effects are the visible damage that an infection or toxin causes in cultured cells.
The mark [2] stands for this setting: 72 h, read-out: EC50 (50% SARS-CoV-2 infected cell death inhibitory concentration), class, HEK293T/ACE2-TMPRSS2 cells, CPE suppression, CellTiter-Glo 2.0 after 3 days culture.
The mark [3] stands for this setting: 72 h, HEK293T/ACE2-TMPRSS2 cells, CPE suppression, CellTiter-Glo 2.0 after 3 days culture, read-out: EC50 (50% SARS-CoV-2 infected cell death inhibitory concentration), class.
The mark [4] stands for this setting: 72 h, read-out: EC50 (50% SARS-CoV-2 infected cell death inhibitory concentration), HEK293T/ACE2-TMPRSS2 cells, CPE suppression, CellTiter-Glo 2.0 after 3 days culture.
Where [5] appears, read: 50% SARS-CoV-2 infected cell death inhibitory concentration, HEK293T/ACE2-TMPRSS2 cells, read-out: EC50.

Consider `Cc1cncc(-n2c(=O)c(Cc3cc(F)c(F)c(F)c3)c(Cl)n(C(C)C#N)c2=O)c1` (racemic) [Compound I-046], for which the IC50 in assay [1] is > 100 nM.

On to `Cc1cncc(-n2c(=O)c(Cc3cc(F)c(F)c(F)c3)c(-c3ccc(C)c(C)c3)n(C(F)C#N)c2=O)c1` (racemic) [Compound I-048], for which the EC50 in the assay with SARS-CoV-2 (setting [2]) was in the range of 1000 to 5000 nM. Also, the IC50 in assay [1] was > 100 nM. `CC(C)(C)OC(=O)C(C#N)n1c(N2CCC(C(F)(F)F)CC2)c(-c2ccc(F)c(Cl)c2)c(=O)n(-c2cncc(Cl)c2)c1=O` (racemic) [Compound I-050]: in the assay with SARS-CoV-2 (setting [3]), the EC50 was < 100 nM. Also, the IC50 in assay [1] is 10 to 100 nM. With `N#CCn1c(N2CCC3(CNC(=O)C3)C2)c(-c2ccc(F)c(Cl)c2)c(=O)n(-c2cnc3cc(Cl)ccn23)c1=O` (racemic) [Compound I-051], in the assay on SARS-CoV-2 (setting [3]), the EC50 was in the range of 1000 to 5000 nM. Besides, the IC50 in assay [1] was in the range of 10 to 100 nM.

For the compound `Cc1cncc(-n2c(=O)c(Cc3cc(F)c(F)c(F)c3)c(N3CC4(CCOC4)C3)n(C(C)C#N)c2=O)c1` (racemic) [Compound I-054], the EC50 with SARS-CoV-2 (setting [3]) is < 100 nM. In addition, the IC50 in assay [1] lay in the range of 10 to 100 nM. The like results for `Cc1cncc(-n2c(=O)c(Cc3cc(F)c(F)c(F)c3)c(-c3ccc(C)c(C)c3)n(C(C#N)C(=O)O)c2=O)c1` (racemic) [Compound I-056] were, in that order, < 100 nM and 10 to 100 nM. Turning to `Cc1cncc(-n2c(=O)c(Cc3cc(F)c(F)c(F)c3)c(-c3ccc(C)c(C)c3)n(C(C)C#N)c2=O)c1` (racemic) [Compound I-057], the EC50 in the assay with SARS-CoV-2 (setting [4]) turned out to be 29 nM. Also, the 50% inhibitory concentration (IC50) in assay [1] was found to be 9.8 nM. Regarding `N#CCn1c(N2CCC3(CCC(=O)N3)C2)c(-c2ccc(F)c(Cl)c2)c(=O)n(-c2cncc(Cl)c2)c1=O` (racemic) [Compound I-061], the EC50 in the assay on SARS-CoV-2 (setting [2]) lay in the range of 100 to 1000 nM. In addition, the IC50 in assay [1] was < 10 nM.

For the compound `N#CCn1c(N2CC3CNC(=O)C3C2)c(-c2ccc(F)c(Cl)c2)c(=O)n(-c2cncc(Cl)c2)c1=O` (racemic) [Compound I-062], the EC50 in the assay with SARS-CoV-2 (setting [2]) was < 100 nM. Also, in assay [1], the IC50 is < 10 nM. For the compound `N#CCn1c(N2CCC3(CNC(=O)C3)C2)c(-c2ccc(F)c(Cl)c2)c(=O)n(-c2cncc(Cl)c2)c1=O` (racemic) [Compound I-063], in the assay on SARS-CoV-2 (setting [2]), the EC50 lay within 100 to 1000 nM. For the same compound, in assay [1], the IC50 was < 10 nM. Regarding `Cc1cncc(-n2c(=O)c(-c3ccc(F)c(Cl)c3)c(N3CCC4(CCOC4)C3)n(CC#N)c2=O)c1` (racemic) [Compound I-070], the EC50 in the assay with SARS-CoV-2 (setting [2]) is < 100 nM. For the same compound, the IC50 in assay [1] was < 10 nM. Consider `Cc1cncc(N2C(=O)N(CC#N)CC3(CCOc4ccc(Cl)cc43)C2=O)c1` (racemic) [Compound I-088], for which the EC50 in the assay on SARS-CoV-2 (setting [4]) came out at 97.2 nM. In assay [1], the half-maximal inhibitory concentration (IC50) was found to be 71 nM. As to `Cc1cncc(-n2c(=O)c(Cc3cc(F)c(F)c(F)c3)c(N3CCC(C#N)C3)n(CC#N)c2=O)c1` (racemic) [Compound I-092], in the assay on SARS-CoV-2 (setting [3]), the EC50 was < 100 nM. In assay [1], the IC50 fell in the range of 10 to 100 nM. The like results for `Cc1cncc(-n2c(=O)c(Cc3cc(F)c(F)c(F)c3)c(N3CCC4(CCC(=O)N4)C3)n(CC#N)c2=O)c1` (racemic) [Compound I-094] were, in that order, 100 to 1000 nM and 10 to 100 nM. On the same counts, the results for `Cc1cncc(-n2c(=O)c(Cc3cc(F)c(F)c(F)c3)c(N3CCC4(C3)NC(=O)NC4=O)n(CC#N)c2=O)c1` (racemic) [Compound I-095] are 1000 to 5000 nM and 10 to 100 nM. In the case of `Cc1cncc(-n2c(=O)c(Cc3cc(F)c(F)c(F)c3)c(N3CCCC(C(F)(F)F)C3)n(CC#N)c2=O)c1` (racemic) [Compound I-097], the EC50 in the assay with SARS-CoV-2 (setting [2]) was < 100 nM. For the same compound, in assay [1], the IC50 is < 10 nM. On the same counts, the results for `Cc1cncc(-n2c(=O)c(Cc3cc(F)c(F)c(F)c3)c(N3CCC(C(N)=O)C3)n(CC#N)c2=O)c1` (racemic) [Compound I-100] are < 100 nM and < 10 nM.

Turning to `COC1CCN(c2c(Cc3cc(F)c(F)c(F)c3)c(=O)n(-c3cncc(C)c3)c(=O)n2CC#N)C1` (racemic) [Compound I-102], the EC50 in the assay on SARS-CoV-2 (setting [2]) is < 100 nM. The IC50 in assay [1] is < 10 nM. The like results for `Cc1cncc(-n2c(=O)c(Cc3cc(F)c(F)c(F)c3)c(N3CC4CC(F)(F)C4C3)n(CC#N)c2=O)c1` (racemic) [Compound I-103] were, in that order, < 100 nM and < 10 nM.

Regarding `Cc1cncc(-n2c(=O)c(Cc3cc(F)c(F)c(F)c3)c(N3CCC(C(F)F)C3)n(CC#N)c2=O)c1` (racemic) [Compound I-107], the EC50 in the assay on SARS-CoV-2 (setting [2]) is < 100 nM. Besides, the IC50 in assay [1] was < 10 nM.

Turning to `Cc1cncc(-n2c(=O)c(Cc3cc(F)c(F)c(F)c3)c(N3CCC(S(N)(=O)=O)C3)n(CC#N)c2=O)c1` (racemic) [Compound I-108], the EC50 in the assay with SARS-CoV-2 (setting [2]) fell in the range of 100 to 1000 nM. Further, the IC50 in assay [1] was < 10 nM.

In the case of `N#CCn1c(N2Cc3ccccc3C2)c(-c2cccc(Cl)c2)c(=O)n(C2CCn3cnnc32)c1=O` (racemic) [Compound I-121], in assay [1], the IC50 is > 100 nM. On the same count and under the same terms, then `CC1(c2ccc(F)c(Cl)c2)CN(CC#N)C(=O)N(c2cncc(Cl)c2)C1=O` (racemic) [Compound I-283], with < 10 nM and > 100 nM; and `N#CCn1c(N2CC3(CCOC3)C2)c(Cc2cc(F)c(F)c(F)c2)c(=O)n(CCC(N)=O)c1=O` [Compound I-001], with > 100 nM; and `Cn1cnc(Cn2c(=O)c(Cc3cc(F)c(F)c(F)c3)c(N3Cc4cn[nH]c4C3)n(CC#N)c2=O)n1` [Compound I-002], with > 100 nM. Same read-out and setting: the value for `Cc1cncc(-n2c(=O)c(Cc3cc(F)c(F)c(F)c3)c(OC(C(F)(F)F)C(F)(F)F)n(CC#N)c2=O)c1` [Compound I-004] was > 100 nM; that for `Cc1cncc(-n2c(=O)c(Cc3cc(F)c(F)c(F)c3)c(Cl)n(CC#N)c2=O)c1` [Compound I-013] was 10 to 100 nM. On the same count and under the same terms, the value for `Cc1cncc(-n2c(=O)c(-c3ccc(F)c(Cl)c3)c(-c3ccc(C(=O)O)cc3)n(CC#N)c2=O)c1` [Compound I-024] was > 100 nM.

In the case of `N#CCn1c(N2CC3(C2)CC(F)(F)C3)c(-c2ccc(F)c(Cl)c2)c(=O)n(-c2cncc(Cl)c2)c1=O` [Compound I-077], the EC50 in the assay on SARS-CoV-2 (setting [4]) amounted to 1.66 nM. Turning to `N#CCn1c(N2CC(n3cccn3)C2)c(-c2ccc(F)c(Cl)c2)c(=O)n(-c2cncc(Cl)c2)c1=O` [Compound I-080], the IC50 in assay [1] was < 10 nM. Take `N#CCn1c(N2CCN(c3ccccc3)C(=O)C2)c(-c2ccc(F)c(Cl)c2)c(=O)n(-c2cncc(Cl)c2)c1=O` [Compound I-081]: the IC50 in assay [1] was > 100 nM. Same read-out and setting: the value for `Cn1cnc(Cn2c(=O)c(Cc3cc(F)c(F)c(F)c3)c(N3CC4(CCOC4)C3)n(CC#N)c2=O)n1` [Compound I-089] was > 100 nM. On to `Cc1cncc(-n2c(=O)c(Cc3cc(F)c(F)c(F)c3)c(N3C[C@@H]4[C@H](C3)C4(F)F)n(CC#N)c2=O)c1` [Compound I-099], for which the EC50 in the assay with SARS-CoV-2 (setting [3]) was < 100 nM. As for `Cc1cc(-n2c(=O)c(Cc3cc(F)c(F)c(F)c3)c(N3CC4(CCOC4)C3)n(CC#N)c2=O)cc(=O)[nH]1` [Compound I-123], the IC50 in assay [1] is > 100 nM. Same read-out and setting: then `N#CCn1c(Cl)c(-c2ccc(F)c(Cl)c2)c(=O)n(-c2cnc3ccc(F)cn23)c1=O` [Compound I-125], with > 100 nM.

On to `CC1(C)CN(c2c(-c3ccc(F)c(Cl)c3)c(=O)n(-c3cnc4cc(F)ccn34)c(=O)n2CC#N)C1` [Compound I-154], for which the IC50 in assay [1] is < 10 nM. On the same count and under the same terms, the value for `N#CCn1c(N2Cc3ccccc3C2)c(Cc2cc(F)c(F)c(F)c2)c(=O)n(-c2cncc(=O)[nH]2)c1=O` [Compound I-158] was 10 to 100 nM. As to `N#CCn1c(N2CC3(CCOC3)C2)c(-c2ccc(F)c(Cl)c2)c(=O)n(-c2cc(C(F)(F)F)[nH]c(=O)c2)c1=O` [Compound I-186], in assay [1], the IC50 was 10 to 100 nM. Same read-out and setting: the value for `N#CCn1c(N2CC3(CCOC3)C2)c(-c2ccc(F)c(Cl)c2)c(=O)n(-c2cc(Cl)[nH]c(=O)c2)c1=O` [Compound I-187] was 10 to 100 nM. On to `Cc1cncc(-n2c(=O)c(-c3ccc(F)c(Cl)c3)c(N3CC4(CCOCC4)C3)n(CC#N)c2=O)n1` [Compound I-193], for which, in the assay with SARS-CoV-2 (setting [3]), the EC50 was < 100 nM. Take `Cc1cncc(-n2c(=O)c(-c3ccc(F)c(Cl)c3)c(N3CCC(C(F)F)CC3)n(CC#N)c2=O)n1` [Compound I-194]: the EC50 in the assay with SARS-CoV-2 (setting [3]) is < 100 nM. Regarding `N#CCn1c(N2CC3(C2)CC(F)(F)C3)c(-c2ccc(F)c(Cl)c2)c(=O)n(-c2cc(=O)cc(Br)[nH]2)c1=O` [Compound I-222], the IC50 in assay [1] was > 100 nM. Same read-out and setting: then `N#CCn1c(N2CCCC2)c(-c2ccc(F)c(Cl)c2)c(=O)n(-c2cncc(Cl)c2)c1=O` [Compound I-252], with < 10 nM.

As for `N#CCn1c(N2CCc3ccccc3C2)c(-c2ccc(F)c(Cl)c2)c(=O)n(-c2cncc(Cl)c2)c1=O` [Compound I-253], the EC50 with SARS-CoV-2 (setting [5]) was < 100 nM. As for `N#CCn1c(N2CCCCC2)c(-c2ccc(F)c(Cl)c2)c(=O)n(-c2cncc(Cl)c2)c1=O` [Compound I-254], the IC50 in assay [1] was < 10 nM.

For `Cc1cncc(-n2c(=O)c(-c3ccc(F)c(Cl)c3)c(-c3ccccc3)n(CC#N)c2=O)c1` [Compound I-268], in the assay with SARS-CoV-2 (setting [5]), the EC50 is < 100 nM. The same measure, in the same setting: then `Cc1cncc(-n2c(=O)c(-c3ccc(F)c(Cl)c3)c(-c3ccc(C4CC4)nc3)n(CC#N)c2=O)c1` [Compound I-269], with < 100 nM.

Turning to `Cc1cc(-n2c(=O)c(-c3ccc(F)c(Cl)c3)c(Cl)n(CC#N)c2=O)c[n+]([O-])c1` [Compound I-277], the IC50 in assay [1] is > 100 nM. The same measure, in the same setting: the value for `N#CCn1c(N2CC3(CCOC3)C2)c(C2CCCCC2)c(=O)n(-c2cncc(Cl)c2)c1=O` [Compound I-285] was > 100 nM.
